Like-named read-outs stand apart in the source and are kept apart here.
Assays:
[1] = tested on: HIV-1-infected MT-4 cells; settings: ref [9]; cited from earlier work
[2] = Relative aqueous solubility by stepwise water dilution of DMSO solution; assay type: physicochemical; settings: 50 μL DMSO solution of 5 mg mL^−1, water added in 50 μL steps
[3] = cited from earlier work
HIV-1 protease = HIV-1 protease (Human immunodeficiency virus type 1 group M subtype B, UniProt P04585); settings: read-out: IC50 (inhibition of HIV-1 protease), cited from earlier work

Compound | activity against HIV-induced cytopathic effects [1] | Water solubility (dilution steps required to achieve clear solution) [2] [x] | solubility in DMSO ([3]; 25°C, ref [23]) | solubility in ethanol ([3]; 25°C, ref [23]) | Water solubility ([3]; at 25°C, ref [22]) [µg/mL] | solubility in water ([3]; room temperature, ref [22]) | IC50 (HIV-1 protease; ref [18]) [µM] | IC50 (HIV-1 protease; ref [19]) [µM]
C=C(C)[C@@H]1CC[C@]2(C(=O)O)CC[C@]3(C)[C@H](CC[C@@H]4[C@@]5(C)CC[C@H](OC(=O)CC(C)(C)C(=O)O)C(C)(C)[C@@H]5CC[C@]43C)[C@@H]12 [3-O-(3′,3′-dimethylsuccinyl) betulinic acid] | high activity |  |  |  |  |  |  | 
C=C(C)[C@@H]1CC[C@]2(C(=O)O)CC[C@]3(C)[C@H](CC[C@@H]4[C@@]5(C)CC[C@H](O)C(C)(C)[C@@H]5CC[C@]43C)[C@@H]12 [compound 1, 3β-hydroxy-lup-20(29)-en-28-oic acid] |  | < 2 | 5 % (w/v) | 1 % (w/v) | 0.02 | about 0.02 μg mL^−1 | 9 | 2.5
C=C(C)[C@@H]1CC[C@]2(C(=O)[O-])CC[C@]3(C)[C@H](CC[C@@H]4[C@@]5(C)CC[C@H](O)C(C)(C)[C@@H]5CC[C@]43C)[C@@H]12.C[N+](C)(C)CCO [compound 8, cholinium betulinate] |  | > 100 |  |  |  |  |  | 
